pEC50, pKd: −log10 of the molar value.

One data set has as its system HEp-2 cells. The data set can be described thus: Cell viability assay (CellTiter-Glo) in HEp-2 cells. In kind it is cell-based. The method, then: (§1) Figure 7. MMP-9-mediated TGM2 cleavage potentiates RSV–host interaction. (A) Cytotoxicity profiling. Dose-response curves of TGM2 inhibitors (ZED-1227, Cystamine, Bacitracin, E64FC26, ML359) in HEp-2 cells (72 h treatment). Viability was assessed by CellTiter-Glo assay. Data normalized to untreated controls. mean ± SD, n = 3. (B) Antiviral efficacy. Viral inhibition (FFA) in RSV A2-infected HEp-2 cells treated with TGM2 inhibitors at threefold dilution gradients: ZED-1227 (60–10 µmol/L), Cystamine (200–22.2 µmol/L), Bacitracin (500–50 µmol/L), E64FC26 (0.2–0.05 µmol/L), and ML359 (10–1.1 µmol/L). DMSO as vehicle control. mean ± SD, n = 3. (C) TGM2–F protein interaction. Co-IP analysis in HEK293T cells co-expressing TGM2 and RSV F (48 h). Immunoblots were probed with anti-TGM2, anti-F, or IgG control. Blots represent three independent experiments. (D) Binding kinetics. BLI quantification of TGM2–DS-Cav1 (RSV F prefusion conformation) interaction. The results represent three biological replicates. (E) Ternary complex formation. Co-IP of MMP-9-TGM2-F complex in HEK293T cells (48 h). GAPDH as loading control. Below the asterisk represents the objective band. Blots represent three independent experiments. (F) Impairing MMP-9/TGM2/RSV-F complex inhibits RSV infection. […] (G) Proteolytic enhancement. MMP-9-cleaved TGM2 (TGM2-44) enhances protein disulfide isomerase (PDI) activity was measured using reduced DS-Cav1. mean ± SD, n = 3. (H) Truncation functional analysis. Viral titers (FFA) in HEp-2 cells expressing MMP-9, TGM2, or cleavage fragments (TGM2-44/41) post RSV infection (MOI = 1, 72 hpi). mean ± SD, n = 3. (I) Syncytium rescue. Syncytia area quantification in TGM2 truncation-expressing cells (ImageJ software). mean ± SD, n = 3. (J) Subcellular redistribution. Confocal microscopy of HEp-2 cells co-expressing TGM2 truncations (HA/FLAG-tagged) and RSV F (72 hpi). Scale bar: 10 µm. Images represent three biological replicates. (K) F protein expression. Fluorescence intensity quantification of RSV F in (J) (ImageJ software). mean ± SD, n = 3. (L) Fusion competence assay. Syncytium formation in HEK293T cells co-expressing TGM2 truncations and RSV F/F-C37S/C69S mutants (48 h). Scale bar: 10 µm. Images represent three biological replicates. (M) Mutant validation. RSV F expression levels in (L) were quantified by ImageJ software. mean ± SD, n = 3. The results are representatively shown with three random experiments. The error bars indicate the mean ± SD of three technical replicates (n = 3). […]
(§2) (B-C) Cytotoxicity profiles in HEp-2 (B) and HBEC (C) cells. […] Viability was assessed using the CellTiter-Glo assay (G7570, Promega). […]
(§3) 95 Cell viability was evaluated using a CellTiter -Glo® Luminescent Cell Viability Assay 96 kit (G7571, Promega) according to the manufacturer’s instructions. […]
(In ATP-based viability assays light output follows the ATP content of the culture.)

For data set [1], the system named is RSV A2. The data set can be described thus: Viral inhibition (FFA) in RSV A2-infected HEp-2 cells treated with TGM2 inhibitors. In kind it is cell-based, Respiratory syncytial virus. The following applies: HEp-2, RSV A2; ZED-1227 60–10, Cystamine 200–22.2, Bacitracin 500–50, E64FC26 0.2–0.05, ML359 10–1.1 µmol/L. The method, then:
Figure 7. MMP-9-mediated TGM2 cleavage potentiates RSV–host interaction. (A) Cytotoxicity profiling. Dose-response curves of TGM2 inhibitors (ZED-1227, Cystamine, Bacitracin, E64FC26, ML359) in HEp-2 cells (72 h treatment). Viability was assessed by CellTiter-Glo assay. Data normalized to untreated controls. mean ± SD, n = 3. (B) Antiviral efficacy. Viral inhibition (FFA) in RSV A2-infected HEp-2 cells treated with TGM2 inhibitors at threefold dilution gradients: ZED-1227 (60–10 µmol/L), Cystamine (200–22.2 µmol/L), Bacitracin (500–50 µmol/L), E64FC26 (0.2–0.05 µmol/L), and ML359 (10–1.1 µmol/L). DMSO as vehicle control. mean ± SD, n = 3. (C) TGM2–F protein interaction. Co-IP analysis in HEK293T cells co-expressing TGM2 and RSV F (48 h). Immunoblots were probed with anti-TGM2, anti-F, or IgG control. Blots represent three independent experiments. (D) Binding kinetics. BLI quantification of TGM2–DS-Cav1 (RSV F prefusion conformation) interaction. The results represent three biological replicates. (E) Ternary complex formation. Co-IP of MMP-9-TGM2-F complex in HEK293T cells (48 h). GAPDH as loading control. Below the asterisk represents the objective band. Blots represent three independent experiments. (F) Impairing MMP-9/TGM2/RSV-F complex inhibits RSV infection. […] (G) Proteolytic enhancement. MMP-9-cleaved TGM2 (TGM2-44) enhances protein disulfide isomerase (PDI) activity was measured using reduced DS-Cav1. mean ± SD, n = 3. (H) Truncation functional analysis. Viral titers (FFA) in HEp-2 cells expressing MMP-9, TGM2, or cleavage fragments (TGM2-44/41) post RSV infection (MOI = 1, 72 hpi). mean ± SD, n = 3. (I) Syncytium rescue. Syncytia area quantification in TGM2 truncation-expressing cells (ImageJ software). mean ± SD, n = 3. (J) Subcellular redistribution. Confocal microscopy of HEp-2 cells co-expressing TGM2 truncations (HA/FLAG-tagged) and RSV F (72 hpi). Scale bar: 10 µm. Images represent three biological replicates. (K) F protein expression. Fluorescence intensity quantification of RSV F in (J) (ImageJ software). mean ± SD, n = 3. (L) Fusion competence assay. Syncytium formation in HEK293T cells co-expressing TGM2 truncations and RSV F/F-C37S/C69S mutants (48 h). Scale bar: 10 µm. Images represent three biological replicates. (M) Mutant validation. RSV F expression levels in (L) were quantified by ImageJ software. mean ± SD, n = 3. The results are representatively shown with three random experiments. The error bars indicate the mean ± SD of three technical replicates (n = 3). Statistical analysis: one-way ANOVA with Dunnett’s post hoc test (B, F, G, H, I, K, M); unpaired two-tailed Student’s t-test (F, H, I, K, M). *P < 0.05, **P < 0.01, ***P < 0.001; ns, not significant.

Data set [2] deals with RSV A2. Briefly: Antiviral activity (FFA) against RSV A2 in HEp-2 cells. In kind it is cell-based. The following applies: human respiratory syncytial virus; HEp-2, RSV A2, MOI = 0.1, 72 hpi; read-out: EC50. From the text:
(§4) Figure 1. Antiviral activity of metalloproteinase inhibitors against RSV in vitro. (A) Experimental workflow for RSV A2 infection and compound treatment. (B) High-throughput screening of TargetMol L1100 library (246 host protease inhibitors targeting 10 pathways: MMPs, caspases, proteasomes, apoptosis regulators, cysteine proteases, gamma-secretase, autophagy modulators, serine proteases, DPP-4, and beta-secretase) using concentration gradients (1, 5, 10 µmol/L). HEp-2 cells were pretreated with compounds for 1 hour prior to RSV A2 infection (MOI = 0.1). Plaque formation was quantified at 72 hours post-infection (hpi) and normalized to DMSO controls. […] (G) Target overlap analysis of four MMP-9-targeting inhibitors. (H) Viral titers in supernatants of HEp-2 cells transfected with MMP-specific siRNAs (24 h) followed by RSV A2 infection (MOI = 1, 72 h). mean ± SD, n = 3. The results are representatively shown with three random experiments. The error bars indicate the mean ± SD of three technical replicates (n = 3). Statistical significance was determined by one-way ANOVA with Dunnett’s post hoc test: *P < 0.05, ***P < 0.001; ns, not significant. […]
(§5) 110 overtly cytotoxic) underwent dose -response validation (0.00004 –10 μM) to generate
(§6) 111 EC50 curves (GraphPad Prism 8.0) .
(§7) 112 Evaluation of in vitro antiviral activity
(§8) 113 Compound inhibitor treatments: HEp-2 cells (1.3×10⁴/well) or HBEC (1.8×10⁴/well)
(§9) 114 were pretreated with test compounds for 1 h before RSV A2/B18537 infection
(§10) 115 (MOI=0.1 or 0.3). Viral inhibition was quantified at 72 hpi via FFA. Fixed cells (4%
(§11) 116 PFA) were permeabilized (0.3% Triton X-100), stained with anti-RSV-FITC
(§12) 118 Fluorescent foci were normalized to nuclear counts (ImageJ software) for EC 50
(§13) 119 determination via four-parameter logistic regression (GraphPad Prism 8.0). Data
(§14) 120 represent triplicate experiments. […]

Data set [3] relates to RSV A2. Briefly: Antiviral activity (FFA) against RSV A2 in primary human bronchial epithelial cells (HBEC). In kind it is cell-based. The following applies: human respiratory syncytial virus, Epithelial cell; HBEC, RSV A2, MOI = 0.3, 72 hpi; read-out: EC50.
Description: as §4, §7, §8, §9, §10, §11, §12, §13, §14

Data set [4] has as its system RSV B18537. Briefly: Antiviral activity (FFA) against RSV B18537 in HBEC. Conditions: human respiratory syncytial virus; HBEC, RSV B18537, MOI = 0.3, 72 hpi; read-out: EC50. In kind it is cell-based.
Description: as §4, §7, §8, §9, §10, §11, §12, §13, §14

The test system of data set [5] is RSV B18537. The data set can be described thus: Antiviral activity (FFA) against RSV B18537 in HEp-2 cells. In kind it is cell-based. Conditions: human respiratory syncytial virus; HEp-2, RSV B18537, MOI = 0.1, 72 hpi; read-out: EC50.
Description: as §4
109 111813, MCE) and 0.1% DMSO vehicle. Primary hits (>50% CPE reduction + not
as §5, §6, §7, §8, §9, §10, §11, §12, §13, §14

A short description of data set [6]: Cell viability assay (CellTiter-Glo) in HEp-2 cells. In kind it is cell-based. The following applies: human. The method, then: as §1, §2, §3
For another data set, the target named is RSV F protein (DS-Cav1). Briefly: Biolayer interferometry, TGM2 binding to RSV F protein (DS-Cav1). Set-up: species or system Respiratory syncytial virus. The following applies: BLI, biotinylated DS-Cav1 on SA biosensors. The method, then:
Figure 7. MMP-9-mediated TGM2 cleavage potentiates RSV–host interaction. (A) Cytotoxicity profiling. Dose-response curves of TGM2 inhibitors (ZED-1227, Cystamine, Bacitracin, E64FC26, ML359) in HEp-2 cells (72 h treatment). Viability was assessed by CellTiter-Glo assay. Data normalized to untreated controls. mean ± SD, n = 3. (B) Antiviral efficacy. Viral inhibition (FFA) in RSV A2-infected HEp-2 cells treated with TGM2 inhibitors at threefold dilution gradients: ZED-1227 (60–10 µmol/L), Cystamine (200–22.2 µmol/L), Bacitracin (500–50 µmol/L), E64FC26 (0.2–0.05 µmol/L), and ML359 (10–1.1 µmol/L). DMSO as vehicle control. mean ± SD, n = 3. (C) TGM2–F protein interaction. […] BLI quantification of TGM2–DS-Cav1 (RSV F prefusion conformation) interaction. […] MMP-9-cleaved TGM2 (TGM2-44) enhances protein disulfide isomerase (PDI) activity was measured using reduced DS-Cav1. mean ± SD, n = 3. […] Syncytia area quantification in TGM2 truncation-expressing cells (ImageJ software). mean ± SD, n = 3. […] Fluorescence intensity quantification of RSV F in (J) (ImageJ software). mean ± SD, n = 3. […] RSV F expression levels in (L) were quantified by ImageJ software. mean ± SD, n = 3. […]
271 TGM2) were quantified using a Sartorius Octet R4 system. […]
275 equilibration. MMP-9 (MCE) binding was assessed across two concentration ranges: […]
281 (Sartorius) at 20 µg/mL. TGM2 binding was evaluated across 0 –100 µM (7 […]
(In general: Biolayer interferometry detects binding as a change in optical thickness at a sensor tip.)

Consider `CCOC(=O)C1(CCOc2ccccc2)CCN(Cc2ccc(O)c(Cl)c2)CC1` [ML359], for which, in the data set on HEp-2 cells, the CC50 (commonly the concentration giving 50% cytotoxicity) was 26100 nM. The “inhibition of RSV replication (antiviral efficacy)” value (shortened to “inhibition of RSV replication”) in the data set with RSV A2 [1] is recorded as “strong antiviral efficacy”.

For the molecule `Cc1cnc(N2CC3(CCOCC3)C2)c(C(=O)Nc2ccc(C(=O)N3CCc4cc(C(=O)Nc5c(C)cccc5F)sc4-c4ccccc43)cc2)c1` [PC786], the pEC50 – broadly, the negative decadic logarithm of the EC50, by convention in mol/L – in the data set on RSV A2 [2] is 8.59; with RSV A2 [3], 7.34; in the data set with RSV B18537 [4] it was 7.33; with RSV B18537 [5], 7.48.

As to `CCC(CC)CNC(=O)Cn1cccc(NC(=O)[C@H](CC/C=C/C(=O)OC)NC(=O)c2cncn2C)c1=O` [ZED-1227], the CC50 at 72 h in data set [6] was 78700 nM. The “inhibition of RSV replication” value with RSV A2 [1] was “did not inhibit RSV replication”.

As for Bacitracin, in the data set with RSV A2 [1], the “inhibition of RSV replication” value is “strong antiviral efficacy”.

As for “TGM2: recombinant transglutaminase 2 protein used in BLI”, on RSV F protein (DS-Cav1), the pKd – broadly, the Kd on a negative log10 scale, so that one unit is a factor of ten – is 5.20.
